In PubChem BioAssay AID1259407 (Chemical Carcinogenesis Research Information System (CCRIS), 2018):
Active and inactive are the calls of the source. The rule behind the calls is not given here.

System: CCRIS mutagenicity, Ames/micronucleus/aberration tests
Experiment: CCRIS mutagenicity studies

Measured: mutagenic call

BrCCBr
inactive: Test System: AMES SALMONELLA TYPHIMURIUM, Strain/Indicator: TA98, Metabolic Activation: NONE, Method: STANDARD PLATE inactive; negative | Test System: AMES SALMONELLA TYPHIMURIUM, Strain/Indicator: TA100/NG-57, Metabolic Activation: NONE, Method: PREINCUBATION inactive; negative | Test System: AMES SALMONELLA TYPHIMURIUM, Strain/Indicator: TA102, Metabolic Activation: NONE, Method: STANDARD PLATE inactive; negative | Test System: AMES SALMONELLA TYPHIMURIUM, Strain/Indicator: TA104, Metabolic Activation: NONE, Method: STANDARD PLATE inactive; negative | Test System: AMES SALMONELLA TYPHIMURIUM, Strain/Indicator: TA104, Metabolic Activation: RAT, LIVER, S-9, AROCLOR 1254, Method: STANDARD PLATE inactive; negative | Test System: AMES SALMONELLA TYPHIMURIUM, Strain/Indicator: TA2638, Metabolic Activation: NONE, Method: STANDARD PLATE inactive; negative | Test System: CHINESE HAMSTER OVARY, Strain/Indicator: CHO-K1-BH4 (HGPRT)/6-THIOGUANINE, Metabolic Activation: NONE inactive; negative | Test System: E. COLI, Strain/Indicator: K12(AB1157), Metabolic Activation: NONE, Method: SUSPENSION/PLATE inactive; negative | Test System: E. COLI, Strain/Indicator: K12(AB1157), Metabolic Activation: RAT, LIVER, S-9, PHENOBARBITAL AND BETA-NAPHTHOFLAVONE, Method: SUSPENSION/PLATE inactive; negative | Test System: E. COLI, Strain/Indicator: K12(AB2480) RECA/UVRA, Metabolic Activation: NONE, Method: SUSPENSION/PLATE inactive; negative | Test System: E. COLI, Strain/Indicator: K12(AB2480) RECA/UVRA, Metabolic Activation: RAT, LIVER, S-9, PHENOBARBITAL AND BETA-NAPHTHOFLAVONE, Method: SUSPENSION/PLATE inactive; negative
active: End Point: IN VITRO CHROMOSOMAL ABERRATIONS, Test System: CHL CELLS, Metabolic Activation: RAT, LIVER, S-9, SODIUM PHENOBARBITAL AND 5,6-BENZOFLAVONE active; positive (structural changes) | End Point: IN VITRO CHROMOSOMAL ABERRATIONS, Test System: CHO CELLS, Metabolic Activation: NONE active; positive | End Point: IN VITRO CHROMOSOMAL ABERRATIONS, Test System: CHO CELLS, Metabolic Activation: RAT, LIVER, S-9, AROCLOR 1254 active; positive | Test System: AMES SALMONELLA TYPHIMURIUM, Strain/Indicator: TA97, Metabolic Activation: NONE, Method: STANDARD PLATE active; positive | Test System: AMES SALMONELLA TYPHIMURIUM, Strain/Indicator: TA97, Metabolic Activation: RAT, LIVER, S-9, AROCLOR 1254, Method: STANDARD PLATE active; positive | Test System: AMES SALMONELLA TYPHIMURIUM, Strain/Indicator: TA98, Metabolic Activation: RAT, LIVER, S-9, AROCLOR 1254, Method: STANDARD PLATE active; positive | Test System: AMES SALMONELLA TYPHIMURIUM, Strain/Indicator: TA100/NG-57, Metabolic Activation: CELL PRETREATMENT WITH GLUTATHIONE, Method: PREINCUBATION active; positive | Test System: AMES SALMONELLA TYPHIMURIUM, Strain/Indicator: TA100, Metabolic Activation: CELL PRETREATMENT WITH GLUTATHIONE, Method: PREINCUBATION active; positive | Test System: AMES SALMONELLA TYPHIMURIUM, Strain/Indicator: TA100, Metabolic Activation: NONE active; positive | Test System: AMES SALMONELLA TYPHIMURIUM, Strain/Indicator: TA100, Metabolic Activation: NONE, Method: PREINCUBATION active; positive | Test System: AMES SALMONELLA TYPHIMURIUM, Strain/Indicator: TA100, Metabolic Activation: NONE, Method: SUSPENSION/PLATE active; positive | Test System: AMES SALMONELLA TYPHIMURIUM, Strain/Indicator: TA100, Metabolic Activation: RAT, KIDNEY, S-9, AROCLOR 1254 active; positive | Test System: AMES SALMONELLA TYPHIMURIUM, Strain/Indicator: TA100, Metabolic Activation: RAT, LIVER, HEPATOCYTES, Method: SUSPENSION/PLATE active; positive | Test System: AMES SALMONELLA TYPHIMURIUM, Strain/Indicator: TA100, Metabolic Activation: RAT, LIVER, S-9, AROCLOR 1254 active; positive | Test System: AMES SALMONELLA TYPHIMURIUM, Strain/Indicator: TA100, Metabolic Activation: RAT, LIVER, S-9, AROCLOR 1254, Method: STANDARD PLATE active; positive | Test System: AMES SALMONELLA TYPHIMURIUM, Strain/Indicator: TA100, Metabolic Activation: RAT, LIVER, S-9, AROCLOR 1254 AND RAT, KIDNEY, S-9, AROCLOR 1254 active; positive | Test System: AMES SALMONELLA TYPHIMURIUM, Strain/Indicator: TA100, Metabolic Activation: S-9 MIX, Method: STANDARD PLATE active; positive | Test System: AMES SALMONELLA TYPHIMURIUM, Strain/Indicator: TA1530, Metabolic Activation: NONE, Method: SPOT active; positive | Test System: AMES SALMONELLA TYPHIMURIUM, Strain/Indicator: TA1535/NG-19, Metabolic Activation: CELL PRETREATMENT WITH GLUTATHIONE, Method: PREINCUBATION active; positive | Test System: AMES SALMONELLA TYPHIMURIUM, Strain/Indicator: TA1535/NG-19, Metabolic Activation: NONE, Method: PREINCUBATION active; positive | Test System: AMES SALMONELLA TYPHIMURIUM, Strain/Indicator: TA1535, Metabolic Activation: CELL PRETREATMENT WITH GLUTATHIONE, Method: PREINCUBATION active; positive | Test System: AMES SALMONELLA TYPHIMURIUM, Strain/Indicator: TA1535, Metabolic Activation: NONE, Method: PREINCUBATION active; positive | Test System: AMES SALMONELLA TYPHIMURIUM, Strain/Indicator: TA1535, Metabolic Activation: NONE, Method: STANDARD PLATE active; positive | Test System: AMES SALMONELLA TYPHIMURIUM, Strain/Indicator: TA1535, Metabolic Activation: RAT, KIDNEY, S-9, AROCLOR 1254 active; positive | Test System: AMES SALMONELLA TYPHIMURIUM, Strain/Indicator: TA1535, Metabolic Activation: RAT, LIVER, S-9, AROCLOR 1254, Method: PREINCUBATION active; positive | Test System: AMES SALMONELLA TYPHIMURIUM, Strain/Indicator: TA1535, Metabolic Activation: RAT, LIVER, S-9, AROCLOR 1254, Method: STANDARD PLATE active; positive | Test System: AMES SALMONELLA TYPHIMURIUM, Strain/Indicator: TA1535, Metabolic Activation: RAT, LIVER, S-9, AROCLOR 1254 AND RAT, KIDNEY, S-9, AROCLOR 1254 active; positive | Test System: AMES SALMONELLA TYPHIMURIUM, Strain/Indicator: TA1535, Metabolic Activation: RAT, LIVER, S-9, PHENOBARBITAL, Method: STANDARD PLATE active; positive | Test System: AMES SALMONELLA TYPHIMURIUM, Strain/Indicator: YG7100, Metabolic Activation: NONE, Method: PREINCUBATION active; positive | Test System: AMES SALMONELLA TYPHIMURIUM, Strain/Indicator: YG7104, Metabolic Activation: NONE, Method: PREINCUBATION active; positive | Test System: AMES SALMONELLA TYPHIMURIUM, Strain/Indicator: YG7108, Metabolic Activation: NONE, Method: PREINCUBATION active; positive | Test System: AMES SALMONELLA TYPHIMURIUM, Strain/Indicator: YG7112, Metabolic Activation: NONE, Method: PREINCUBATION active; positive | Test System: AMES SALMONELLA TYPHIMURIUM, Strain/Indicator: YG7113, Metabolic Activation: NONE, Method: PREINCUBATION active; positive | Test System: AMES SALMONELLA TYPHIMURIUM, Strain/Indicator: YG7119, Metabolic Activation: NONE, Method: PREINCUBATION active; positive | Test System: CHINESE HAMSTER OVARY, Strain/Indicator: CHO-K1 (HPRT)/6-THIOGUANINE, Metabolic Activation: NONE, Method: SUSPENSION/PLATE active; positive | Test System: E. COLI, Strain/Indicator: K12(AB1886) UVRA, Metabolic Activation: NONE, Method: SUSPENSION/PLATE active; positive | Test System: E. COLI, Strain/Indicator: K12(AB1886) UVRA, Metabolic Activation: RAT, LIVER, S-9, PHENOBARBITAL AND BETA-NAPHTHOFLAVONE, Method: SUSPENSION/PLATE active; positive | Test System: E. COLI, Strain/Indicator: WP2 UVRA (PKM101), Metabolic Activation: NONE, Method: STANDARD PLATE active; positive | Test System: MOUSE LYMPHOMA, Strain/Indicator: L5178Y (TK+/TK-), Metabolic Activation: NONE, Method: SUSPENSION/PLATE active; positive | Test System: MOUSE LYMPHOMA, Strain/Indicator: L5178Y (TK+/TK-), Metabolic Activation: RAT, LIVER, S-9, AROCLOR 1254, Method: SUSPENSION/PLATE active; positive
